According to ChEMBL document CHEMBL1833868, “Design and synthesis of resveratrol-based nitrovinylstilbenes as antimitotic agents” (J Med Chem, 2011):
The source made the active and inactive calls. No cut-off for these calls is given here.

Assays:
[1] = system: A549; assay: Antiproliferative activity against human A549 cells assessed as cell viability after 48 hrs by SRB assay; assay type: functional, cell-based; conditions: A549, 48 h
[2] = system: HeLa; assay: Antiproliferative activity against human HeLa cells assessed as cell viability after 48 hrs by SRB assay; assay type: functional, cell-based
[3] = system: MCF7; assay: Antiproliferative activity against human MCF7 cells assessed as cell viability after 48 hrs by SRB assay; assay type: functional, cell-based; conditions: MCF7, 48 h
[4] = species on record: Bos taurus; assay: Inhibition of bovine tubulin polymerization at 3 uM after 1 hr by fluorescence assay relative to control
[5] = system: HeLa; assay: Induction of cell cycle arrest in human HeLa cells assessed as accumulation of cells in S phase at 5 uM after 24 hrs by flow cytometry analysis (reference value: 9.28%); assay type: functional
[6] = system: HeLa; assay: Antimitotic activity in human HeLa cells assessed as disruption of microtubule network at 5 uM after 24 hrs by indirect immunofluorescence analysis; assay type: functional, cell-based
[7] = system: HeLa; assay: Effect on formation of bipolar spindles in human HeLa cells at 5 uM after 24 hrs by indirect immunofluorescence analysis; assay type: functional, cell-based
[8] = system: HeLa; assay: Induction of apoptosis in human HeLa cells assessed as increase in caspase 3 activity at 5 uM after 24 hrs by fluorimetry relative to control; assay type: functional
[9] = Inhibition of bovine tubulin assembly after 1 hr by fluorescence assay; set-up: species or system Bos taurus
[10] = system: HeLa; assay: Effect on nuclear condensation in human HeLa cells assessed as incomplete chromosome formation at 5 uM after 24 hrs by indirect immunofluorescence analysis; assay type: functional, cell-based
[11] = system: HeLa; assay: Induction of cell cycle arrest in human HeLa cells assessed as accumulation of cells in G1 phase at 5 uM after 24 hrs by flow cytometry analysis (reference value: 69.43%); assay type: functional
[12] = system: HeLa; assay: Induction of cell cycle arrest in human HeLa cells assessed as accumulation of cells in G2/M phase at 5 uM after 24 hrs by flow cytometry analysis (reference value: 21.29%); assay type: functional
[13] = system: HeLa; assay: Induction of apoptosis in human HeLa cells assessed as increase in caspase 3 activity at 40 uM after 24 hrs by fluorimetry relative to control; assay type: functional
[14] = system: HeLa; assay: Induction of apoptosis in human HeLa cells assessed as increase in caspase 3 activity at 5 uM after 24 hrs by fluorimetry; assay type: functional, cell-based

Row | Compound | IC50 [1] | IC50 ([2]; hela) | IC50 [3] | inhibition [4] | Activity [5] | Activity [6] | Activity [7] | fold change (FC) [8] | IC50 [9] | IC50 ([2]; Homo sapiens, HeLa, 48 h) | Activity [10] | Activity [11] | Activity [12] | fold change (FC) [13] | Activity [14]
1 | COc1cc(/C=C/c2c(/C=C/[N+](=O)[O-])cc(OC)c(OC)c2OC)cc(OC)c1OC | 27.1 µM | Not Active | 13.2 µM | 20% |  |  |  |  |  |  |  |  |  |  | 
2 | COc1ccc(/C=C/c2c(/C=C/[N+](=O)[O-])cc(OC)c(OC)c2OC)cc1 | 40.4 µM |  | 21.4 µM | 59% | 22.96% | Active | inactive | 10 | 4.9 µM | 7.8 µM | Active | 16.64% | 60.4% |  | 
3 | COc1cc(/C=C/[N+](=O)[O-])c(/C=C/c2ccc(Cl)cc2)c(OC)c1OC | 22.8 µM | Not Active | 25.7 µM | 33% |  |  |  |  |  |  |  |  |  |  | 
4 | COc1cc(/C=C/[N+](=O)[O-])c(/C=C/c2ccc3c(c2)OCO3)c(OC)c1OC | 16.3 µM |  | 19.2 µM | 51% | 22.3% |  |  |  | 8.02 µM | 5.4 µM |  | 27.14% | 50.56% |  | 
5 | COc1cc(/C=C/[N+](=O)[O-])c(/C=C/c2ccc(-c3ccccc3)cc2)c(OC)c1OC | 44.4 µM | Not Active | 7.2 µM | 28% |  |  |  |  |  |  |  |  |  |  | 
6 | COc1cc(/C=C/[N+](=O)[O-])c(/C=C/c2ccccc2)c(OC)c1OC | 28.9 µM |  | 10.9 µM | 31% |  |  |  |  |  | 5.42 µM |  |  |  |  | 
7 | COc1cc(/C=C/[N+](=O)[O-])c(/C=C/c2ccc3ccccc3c2)c(OC)c1OC | 59.5 µM |  | 16.7 µM | 32% |  |  |  |  |  | 189 µM |  |  |  |  | 
8 | COc1cc(/C=C/[N+](=O)[O-])c(/C=C/c2ccc(F)cc2)c(OC)c1OC | 35.9 µM |  | 19 µM | 31% |  |  |  |  |  | 12.4 µM |  |  |  |  | 
9 | COc1cc(/C=C/[N+](=O)[O-])c(/C=C/c2ccc(Br)cc2)c(OC)c1OC | 41 µM | Not Active | 14.6 µM | 28% |  |  |  |  |  |  |  |  |  |  | 
10 | COc1cc(/C=C/c2c(/C=C/[N+](=O)[O-])cc(OC)c(OC)c2OC)cc(OC)c1 | 15 µM |  | 19.2 µM | 27% |  |  |  |  |  | 10 µM |  |  |  |  | 
11 | Oc1ccc(/C=C/c2cc(O)cc(O)c2)cc1 [RESVERATROL] | 44.7 µM |  | 79.1 µM |  |  |  |  |  |  | 22.5 µM |  |  |  | 5 | inactive
12 | COc1cc(/C=C/[N+](=O)[O-])c(/C=C/c2ccc(C)cc2)c(OC)c1OC | 19 µM |  | 42.5 µM | 62% | 23.91% | Active | inactive | 12 | 4.27 µM | 4.4 µM | Active | 9.66% | 66.43% |  | 
13 | COc1cc2c(c(OC)c1OC)-c1ccc(OC)c(=O)cc1[C@@H](NC(C)=O)CC2 [COLCHICINE] |  |  |  | 58% |  |  |  |  | 1.96 µM |  |  |  |  |  | 
